The source made the active and inactive calls.
What was measured:
Ephrin type-A receptor 4 = Ephrin type-A receptor 4 (Mus musculus, UniProt Q03137); assay: EphA4 ligand-binding antagonists – biochemical, colorimetric, mouse EphA4, primary screen (AID 689); assay type: functional
[1] = Luminescence Cell-Based Dose Confirmation to Identify Activators of 5'UTR Stem-Loop Driven Alpha-Synuclein mRNA Translation in H4 Neuroglioblastoma Cells. [Related pubchem assays: 1829 (Project Summary), 1814 (Primary HTS)]; assay type: functional
[2] = molecular target: Epstein-Barr nuclear antigen 1 (Epstein-Barr virus (strain B95-8) (HHV-4) (Human herpesvirus 4), UniProt P03211); assay: inhibition of EBV nuclear antigen 1 DNA binding – biochemical, fluorescence polarization, 1536-well, dose response (AID 2381); set-up: species or system human gammaherpesvirus 4;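 further: fluorescence polarization of a Cy5 DNA probe bound by EBNA-1 protein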
Sequence of Epstein-Barr nuclear antigen 1 (P03211 whole entry): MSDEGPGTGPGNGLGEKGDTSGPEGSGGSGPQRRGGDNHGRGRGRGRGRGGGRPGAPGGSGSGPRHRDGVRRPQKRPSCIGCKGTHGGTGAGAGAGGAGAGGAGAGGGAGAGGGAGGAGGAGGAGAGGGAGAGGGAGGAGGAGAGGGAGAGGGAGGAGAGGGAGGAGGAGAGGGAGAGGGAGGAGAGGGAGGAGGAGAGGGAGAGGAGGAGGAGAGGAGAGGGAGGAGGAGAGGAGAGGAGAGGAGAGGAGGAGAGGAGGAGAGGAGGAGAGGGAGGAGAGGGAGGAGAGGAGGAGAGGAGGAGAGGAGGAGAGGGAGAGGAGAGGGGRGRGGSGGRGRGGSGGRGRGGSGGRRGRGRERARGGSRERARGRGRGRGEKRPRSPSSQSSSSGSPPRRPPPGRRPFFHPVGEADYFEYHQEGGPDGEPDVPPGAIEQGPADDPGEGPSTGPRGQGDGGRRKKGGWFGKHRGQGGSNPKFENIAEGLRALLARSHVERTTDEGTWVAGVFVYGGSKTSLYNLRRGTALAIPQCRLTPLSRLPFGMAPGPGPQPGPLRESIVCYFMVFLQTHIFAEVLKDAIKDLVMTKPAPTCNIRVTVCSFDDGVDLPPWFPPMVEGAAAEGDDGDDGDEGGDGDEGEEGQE

H4 = assay: Luminescence Cell-Based Dose Response HTS to Identify Activators of 5'UTR Stem-Loop Driven Prion Protein mRNA Translation in H4 Neuroglioblastoma Cells. [Related pubchem assays: 1829 (Project Summary), 1814 (Primary HTS)]; assay type: functional; settings: Homo sapiens
[3] = Luminescence Cell-Based Dose Response to Identify Activators of Luciferase Translation or Activity in H4-C Neuroglioblastoma Cells. [Related pubchem assays: 1829 (Project Summary), 1814 (Primary HTS)]; assay type: functional
[4] = Luminescence Cell-Based Dose Response to Identify Activators of 5'UTR Stem-Loop Driven Prion Protein mRNA Translation in H4-C Neuroglioblastoma Cells. [Related pubchem assays: 1829 (Project Summary), 1814 (Primary HTS)]; assay type: functional
[5] = molecular target: Lytic switch protein BZLF1 (Epstein-Barr virus (strain B95-8) (HHV-4) (Human herpesvirus 4), UniProt P03206); assay: inhibition of BZLF1 ZTA DNA binding – biochemical, fluorescence polarization, Epstein-Barr virus, 1536-well, counter-screen for EBNA-1 inhibitor project, dose response (AID 2377); set-up: species or system human gammaherpesvirus 4;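 further: fluorescence polarization of Cy5-labelled ZRE DNA probe bound by purified Zta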
Sequence of Lytic switch protein BZLF1 (P03206 whole entry, the tested form may be a part): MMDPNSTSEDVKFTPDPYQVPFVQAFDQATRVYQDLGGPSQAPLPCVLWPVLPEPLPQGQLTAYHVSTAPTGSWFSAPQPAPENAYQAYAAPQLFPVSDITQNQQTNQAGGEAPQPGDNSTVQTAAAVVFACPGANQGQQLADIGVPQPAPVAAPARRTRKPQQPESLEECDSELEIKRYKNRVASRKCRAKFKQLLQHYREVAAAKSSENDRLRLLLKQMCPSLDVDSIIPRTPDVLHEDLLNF

[6] = molecular target: Disintegrin and metalloproteinase domain-containing protein 17 (Homo sapiens, UniProt P78536); assay: exosite inhibitors of ADAM17, dose response, biochemical (AID 743260)
Sequence of Disintegrin and metalloproteinase domain-containing protein 17 (P78536 whole entry, the tested form may be a part): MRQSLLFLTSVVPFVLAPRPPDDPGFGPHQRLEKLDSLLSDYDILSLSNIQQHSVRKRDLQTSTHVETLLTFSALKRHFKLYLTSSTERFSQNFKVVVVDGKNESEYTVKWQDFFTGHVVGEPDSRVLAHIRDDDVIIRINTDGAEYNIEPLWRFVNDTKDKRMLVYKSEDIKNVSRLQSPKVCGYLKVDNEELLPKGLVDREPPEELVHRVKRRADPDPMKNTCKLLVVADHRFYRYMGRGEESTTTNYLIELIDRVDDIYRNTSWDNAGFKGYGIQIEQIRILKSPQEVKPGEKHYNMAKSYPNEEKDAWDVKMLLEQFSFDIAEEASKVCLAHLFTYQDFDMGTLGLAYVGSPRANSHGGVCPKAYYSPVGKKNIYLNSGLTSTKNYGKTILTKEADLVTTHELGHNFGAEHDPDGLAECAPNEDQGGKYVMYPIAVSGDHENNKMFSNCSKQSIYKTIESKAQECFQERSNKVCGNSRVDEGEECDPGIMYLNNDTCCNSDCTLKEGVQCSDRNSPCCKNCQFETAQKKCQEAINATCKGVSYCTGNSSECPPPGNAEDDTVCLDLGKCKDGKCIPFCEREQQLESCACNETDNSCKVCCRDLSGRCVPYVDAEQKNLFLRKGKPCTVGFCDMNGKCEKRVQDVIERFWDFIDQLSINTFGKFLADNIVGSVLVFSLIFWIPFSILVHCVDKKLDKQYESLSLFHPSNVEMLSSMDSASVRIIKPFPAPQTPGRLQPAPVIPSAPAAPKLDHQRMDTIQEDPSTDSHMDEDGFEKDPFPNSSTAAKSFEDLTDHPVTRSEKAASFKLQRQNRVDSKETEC

[7] = inhibition of ADAM10 peptide cleavage – biochemical, FRET peptide substrate, recombinant human ADAM10, selectivity assay for ADAM17 exosite inhibitor project, dose response (AID 743259);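 further: ADAM10 enzyme cleaving a FRET peptide substrate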
Vero = assay: mammalian cell viability reduction – secondary assay, cytotoxicity control for West Nile virus antiviral project, dose response (AID 1650); assay type: functional; settings: Chlorocebus sabaeus
[8] = test system: Streptococcus sp. 'group A'; assay: Streptococcus pyogenes SK(-)GAS viability under kanamycin – luminescence, BacTiterGlo, confirmation, counter-screen for streptokinase expression inhibitor project, dose response (AID 1900); assay type: functional, organism-based
INS1 = assay: INS-1E survival protection against cytokine death – cell-based, luminescence, retest, dose response (AID 449756); assay type: functional; settings: Rattus norvegicus;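 further: cell death triggered by IL-1 beta plus TNF-alpha plus IFN-gamma mixture; protective hits raise ATP signal compared with cytokine alone wells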
[9] = luciferase reporter signal suppression in cells – H4 neuroglioma cells, luminescence, dose response (AID 1990); assay type: functional, cell-based
[10] = decrease of insulin promoter-GFP reporter – imaging, high-content screening, mouse beta cells (AID 1628); assay type: functional; settings: MIN6
[11] = MIN6 cell viability loss – mouse insulinoma, cytotoxicity control, dose response (AID 2122); assay type: functional;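 further: confirmatory high-throughput counterscreen run to flag cytotoxic compounds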
Streptococcus = assay: GAS UMAA2166 growth inhibition – luminescence, BacTiterGlo, counter-screen for streptokinase expression inhibitor project, dose response (AID 1915); assay type: functional, organism-based;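 further: potency for reduction of bacterial viability or growth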
[12] = Counterscreen for AddAB inhibitors: absorbance-based bacterial cell-based high throughput dose response assay for inhibitors of bacterial viability. [Related pubchem assays (depositor defined):AID435030, AID449728, AID449731, AID488942, AID488955, AID488956]; assay type: functional
[13] = molecular target: Induced myeloid leukemia cell differentiation protein Mcl-1 (Homo sapiens, UniProt Q07820); assay type: functional
Sequence of Induced myeloid leukemia cell differentiation protein Mcl-1 (Q07820 whole entry): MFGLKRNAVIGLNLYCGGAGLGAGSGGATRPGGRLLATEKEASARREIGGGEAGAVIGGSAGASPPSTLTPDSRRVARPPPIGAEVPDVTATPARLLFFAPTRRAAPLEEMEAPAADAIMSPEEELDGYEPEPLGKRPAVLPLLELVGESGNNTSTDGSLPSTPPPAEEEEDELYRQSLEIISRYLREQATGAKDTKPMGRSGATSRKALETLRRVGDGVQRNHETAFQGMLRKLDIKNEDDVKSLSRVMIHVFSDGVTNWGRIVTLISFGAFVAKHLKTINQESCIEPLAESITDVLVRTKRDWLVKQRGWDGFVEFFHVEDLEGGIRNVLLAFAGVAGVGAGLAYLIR

[14] = Luminescence Cell-Based Dose Response HTS to Identify Inhibitors of 5'UTR Stem-Loop Driven Prion Protein mRNA Translation in H4 Neuroglioblastoma Cells. [Related pubchem assays: 1827 (Project Summary), 1813 (Primary HTS)]; assay type: functional
[15] = alpha-synuclein stem-loop luciferase translation blockers – H4 neuroglioma cells, luminescence, confirmation (AID 1988); assay type: functional, cell-based
Exodeoxyribonuclease V = molecular target: T1, Exodeoxyribonuclease V (Escherichia coli (strain K12), UniProt P04993+P07648+P08394); assay: RecBCD inhibition via phage-restricted bacterial growth – absorbance, V66 E. coli, mutant T4 phage, counter-screen for AddAB inhibitor project, dose response (AID 492957); assay type: functional, cell-based, Escherichia coli str. K-12 substr. MG1655
T1 sequence (P04993 whole entry): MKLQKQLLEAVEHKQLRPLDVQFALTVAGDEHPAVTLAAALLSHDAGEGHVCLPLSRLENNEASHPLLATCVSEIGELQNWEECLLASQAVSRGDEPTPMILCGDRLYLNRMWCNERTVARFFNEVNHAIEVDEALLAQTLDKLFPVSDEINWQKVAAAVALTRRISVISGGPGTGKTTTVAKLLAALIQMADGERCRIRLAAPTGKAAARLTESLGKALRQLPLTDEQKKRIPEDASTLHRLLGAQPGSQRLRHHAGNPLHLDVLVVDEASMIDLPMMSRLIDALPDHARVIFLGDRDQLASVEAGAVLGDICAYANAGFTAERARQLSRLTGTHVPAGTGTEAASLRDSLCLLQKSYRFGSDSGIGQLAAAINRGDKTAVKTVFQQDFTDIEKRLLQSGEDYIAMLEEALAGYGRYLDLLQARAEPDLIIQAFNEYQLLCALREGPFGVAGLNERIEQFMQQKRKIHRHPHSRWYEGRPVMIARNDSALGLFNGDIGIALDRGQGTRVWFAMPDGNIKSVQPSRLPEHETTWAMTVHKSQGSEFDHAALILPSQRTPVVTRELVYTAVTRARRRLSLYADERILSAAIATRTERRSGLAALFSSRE
T1 sequence (P07648 whole entry): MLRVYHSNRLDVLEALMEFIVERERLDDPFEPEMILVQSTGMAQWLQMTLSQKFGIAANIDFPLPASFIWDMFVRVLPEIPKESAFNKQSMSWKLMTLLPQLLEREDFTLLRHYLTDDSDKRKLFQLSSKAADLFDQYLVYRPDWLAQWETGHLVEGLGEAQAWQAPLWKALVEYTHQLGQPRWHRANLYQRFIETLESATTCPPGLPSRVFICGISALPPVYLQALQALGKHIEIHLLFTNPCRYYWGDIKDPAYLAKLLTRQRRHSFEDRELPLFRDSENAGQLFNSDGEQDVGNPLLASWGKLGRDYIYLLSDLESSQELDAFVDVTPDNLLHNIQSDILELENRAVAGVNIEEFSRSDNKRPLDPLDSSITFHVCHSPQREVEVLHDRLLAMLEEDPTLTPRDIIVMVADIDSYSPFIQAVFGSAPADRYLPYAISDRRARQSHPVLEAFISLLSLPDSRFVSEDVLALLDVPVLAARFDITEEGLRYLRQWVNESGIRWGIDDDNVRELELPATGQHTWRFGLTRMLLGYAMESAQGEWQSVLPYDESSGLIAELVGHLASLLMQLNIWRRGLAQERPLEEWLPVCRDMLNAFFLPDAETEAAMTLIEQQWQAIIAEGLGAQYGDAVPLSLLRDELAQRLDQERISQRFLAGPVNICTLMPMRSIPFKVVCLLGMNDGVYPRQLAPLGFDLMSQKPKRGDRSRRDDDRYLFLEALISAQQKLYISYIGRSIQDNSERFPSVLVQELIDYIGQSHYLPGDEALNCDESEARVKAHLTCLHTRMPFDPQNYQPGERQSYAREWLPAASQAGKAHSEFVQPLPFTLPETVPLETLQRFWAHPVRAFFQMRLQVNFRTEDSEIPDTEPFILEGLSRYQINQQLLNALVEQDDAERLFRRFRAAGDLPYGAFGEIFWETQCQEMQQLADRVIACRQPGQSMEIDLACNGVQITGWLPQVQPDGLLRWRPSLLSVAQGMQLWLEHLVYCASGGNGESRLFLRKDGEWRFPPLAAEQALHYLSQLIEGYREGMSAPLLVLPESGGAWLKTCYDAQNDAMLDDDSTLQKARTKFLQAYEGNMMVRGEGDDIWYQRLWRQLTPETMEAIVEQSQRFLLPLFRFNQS
T1 sequence (P08394 whole entry): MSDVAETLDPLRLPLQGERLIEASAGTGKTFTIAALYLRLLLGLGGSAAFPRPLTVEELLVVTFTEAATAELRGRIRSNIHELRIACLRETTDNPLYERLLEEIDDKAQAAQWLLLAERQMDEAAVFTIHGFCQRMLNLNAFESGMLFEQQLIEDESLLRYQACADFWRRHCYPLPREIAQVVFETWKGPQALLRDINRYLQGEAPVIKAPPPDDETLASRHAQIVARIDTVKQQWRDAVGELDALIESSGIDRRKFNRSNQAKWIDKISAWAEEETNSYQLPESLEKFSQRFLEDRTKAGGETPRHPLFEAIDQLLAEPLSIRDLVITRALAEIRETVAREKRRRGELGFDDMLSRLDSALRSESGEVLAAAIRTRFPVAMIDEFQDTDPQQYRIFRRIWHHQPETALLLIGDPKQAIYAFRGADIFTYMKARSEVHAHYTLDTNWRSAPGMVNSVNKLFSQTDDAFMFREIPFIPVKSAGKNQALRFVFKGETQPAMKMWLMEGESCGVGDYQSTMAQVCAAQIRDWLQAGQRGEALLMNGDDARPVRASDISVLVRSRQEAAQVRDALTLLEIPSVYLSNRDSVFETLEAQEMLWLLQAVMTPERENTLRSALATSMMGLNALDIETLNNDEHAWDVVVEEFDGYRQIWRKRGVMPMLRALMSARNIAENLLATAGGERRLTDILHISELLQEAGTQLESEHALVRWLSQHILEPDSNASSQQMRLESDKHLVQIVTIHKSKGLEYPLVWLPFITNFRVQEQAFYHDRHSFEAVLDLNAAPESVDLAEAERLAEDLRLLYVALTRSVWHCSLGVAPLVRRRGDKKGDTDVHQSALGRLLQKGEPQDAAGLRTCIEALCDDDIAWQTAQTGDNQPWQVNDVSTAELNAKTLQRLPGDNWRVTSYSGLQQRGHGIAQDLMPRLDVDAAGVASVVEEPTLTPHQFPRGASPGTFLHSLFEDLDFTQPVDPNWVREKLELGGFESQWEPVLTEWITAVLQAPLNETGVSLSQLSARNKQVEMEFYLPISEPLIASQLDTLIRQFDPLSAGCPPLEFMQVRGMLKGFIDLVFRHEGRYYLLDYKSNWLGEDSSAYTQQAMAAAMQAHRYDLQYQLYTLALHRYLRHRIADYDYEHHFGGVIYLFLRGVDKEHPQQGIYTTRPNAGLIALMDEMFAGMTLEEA

Sequence of Ephrin type-A receptor 4 (Q03137 whole entry): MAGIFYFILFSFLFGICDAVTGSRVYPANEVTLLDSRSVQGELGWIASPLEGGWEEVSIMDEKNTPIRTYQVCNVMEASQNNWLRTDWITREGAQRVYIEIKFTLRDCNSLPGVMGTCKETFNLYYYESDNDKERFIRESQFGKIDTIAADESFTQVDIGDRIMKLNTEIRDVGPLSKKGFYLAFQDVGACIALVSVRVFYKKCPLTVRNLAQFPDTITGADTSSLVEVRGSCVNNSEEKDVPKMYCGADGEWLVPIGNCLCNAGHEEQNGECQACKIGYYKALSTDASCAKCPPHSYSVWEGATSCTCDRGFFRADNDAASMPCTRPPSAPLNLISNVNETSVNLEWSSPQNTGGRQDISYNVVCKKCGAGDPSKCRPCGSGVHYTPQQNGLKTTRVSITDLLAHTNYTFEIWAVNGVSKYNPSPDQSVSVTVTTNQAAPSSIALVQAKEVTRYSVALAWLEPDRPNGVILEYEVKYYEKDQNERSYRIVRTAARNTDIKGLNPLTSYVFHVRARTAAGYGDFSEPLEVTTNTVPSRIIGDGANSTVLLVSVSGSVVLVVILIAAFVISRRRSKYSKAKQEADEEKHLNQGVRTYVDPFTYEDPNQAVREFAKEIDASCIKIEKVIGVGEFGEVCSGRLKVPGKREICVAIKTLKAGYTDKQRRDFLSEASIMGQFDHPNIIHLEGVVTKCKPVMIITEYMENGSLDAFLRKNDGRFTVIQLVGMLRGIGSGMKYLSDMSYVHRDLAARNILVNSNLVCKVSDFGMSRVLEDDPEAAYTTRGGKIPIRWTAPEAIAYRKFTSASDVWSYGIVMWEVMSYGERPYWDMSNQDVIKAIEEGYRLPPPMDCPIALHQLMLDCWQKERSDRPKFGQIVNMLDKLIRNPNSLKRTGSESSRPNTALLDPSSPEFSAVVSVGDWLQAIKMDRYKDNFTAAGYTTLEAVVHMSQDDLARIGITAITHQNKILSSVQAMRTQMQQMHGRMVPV

## CC(C)C1Cc2c(C#N)c(N)sc(=S)c2CO1 (configuration not stated)
Ephrin type-A receptor 4
  IC50: 3.31 µM (active)

## Cc1cc(C(=O)CSc2nnnn2-c2ccccc2)c(C)n1CC1CCCO1 (configuration not stated)
[1]
  EC50: 0.338 µM (active)
[2]
  IC50: 5.23 µM (active)
H4
  EC50: < 0.1 µM (active)
[3]
  EC50: 0.353 µM (active)
[4]
  EC50: 0.326 µM (active)
[5]
  IC50: > 111 µM (not active)

## CCOC(=O)c1cc(OC(=O)c2ccccc2OC)n(-c2ccccc2)n1
[6]
  IC50: > 69.5 µM (inactive)
Ephrin type-A receptor 4
  IC50: 19.7 µM (active)
[7]
  IC50: > 69.5 µM (inactive)

## Cc1ccc(C(C)C)c(OCc2ccc(C(=O)N/N=C/c3ccc(O)cc3O)cc2)c1
Vero
  CC50: 6.86 µM (active)
[8]
  EC50: 1.3 µM (active)
INS1
  AC50: 1.24 µM (active)
[9]
  EC50: 3 µM (active)
[10]
  IC50: 1.03 µM (active)
[11]
  IC50: 1.04 µM (active)
Streptococcus
  EC50: 2.15 µM (active)
[12]
  IC50: > 119 µM (inactive)
[13]
  IC50: 4.97 µM (active)
[14]
  EC50: 8.36 µM (active)
[15]
  EC50: 2.17 µM (active)
Exodeoxyribonuclease V
  IC50: > 119 µM (inactive)
